# Reference: patent publication US11389465B2, “Phosphorylated hexaacyl disaccharides (PHADs) for treating or preventing infections” (VANDERBILT UNIVERSITY, priority 2017, dated 2022)
# Experiments:
# [1] = tested on: tissue macrophages and neutrophils; assay: MPLA modulation of tissue macrophages and neutrophils (FIG. 10); type: in vivo, mice
# Text: FIG. 10. MPLA induces resistance to infection via modulation of tissue macrophages and neutrophils. A-C) Total splenic A) macrophages, B) neutrophils, and C) monocytes 3 days after S. aureus inoculation or vehicle in MPLA- and vehicle-primed mice. D) Representative image of F4/80^+ immunohistochemical staining (brown) in kidney 3 days after S. aureus inoculation in MPLA- and vehicle-primed mice E) Optical density quantification of F4/80^+ staining in kidneys. F) Mice were primed with MPLA or vehicle via intraperitoneal injection and 24 hours later pHrodo tagged S. aureus bioparticles were injected into the peritoneal cavity. Peritoneal leukocytes were harvested 6 hours later and assessed for pHrodo MFI via flow cytometry. G) Mice were primed with MPLA or vehicle via intraperitoneal injection and 24 hours later leukocytes were harvested from the peritoneal cavity. Respiratory burst was elicited by 45 minutes of PMA stimulation and DHR 123 MFI of macrophages, neutrophils, and monocytes was assessed by flow cytometry. H) Mice were administered intravenous clodronate-liposomes 24 hours prior to the first MPLA administration. Mice were then inoculated with intravenous 10^8 cfu S. aureus. Kaplan-Meier survival plot after S. aureus infection (n=15 mice/group). I) Mice were administered intravenous anti-Ly6G antibody 24 hours prior to the first MPLA administration. Mice were then inoculated with intravenous 10^8 cfu S. aureus. Kaplan-Meier survival plot after S. aureus infection (n=10 mice/group). J) C57BL6 WT and CCR2^−/− mice were primed with MPLA or vehicle and inoculated with intravenous 10^8 cfu S. aureus. Kaplan-Meier survival plot after S. aureus infection (n=10 mice/group). K) WT C57BL6 and RAG2^−/− mice were injected with intravenous MPLA or vehicle prior to intravenous inoculation with 10^8 cfu S. aureus. Kaplan-Meier survival plot (n=10 mice/group). Data shown as mean+/−SEM. For Kaplan-Meier plots *, p<0.05 via log-rank Mantel-Cox test. Otherwise, *, p<0.05 as determined by ANOVA with Tukey's post-hoc multiple comparison test
# MPLA treatment increases macrophage, monocyte and neutrophil accumulation in the spleen (FIG. 10, A-C), increases macrophage accumulation in S. aureus abscesses (FIG. 10, D-E) and increases macrophage phagocytosis and respiratory burst functions (FIG. 10, F-G).
# S. aureus = assay: Systemic (intravenous) S. aureus infection in MPLA-primed mice (FIG. 2); type: in vivo; details: MPLA 20 μg
# Method: FIG. 2. MPLA induces resistance to S. aureus and C. albicans infection. A) WT BALB/c mice were injected with intravenous MPLA (20 μg/mouse) or vehicle one and two days prior to intravenous inoculation with intravenous 10^8 cfu S. aureus or 10^8 cfu C. albicans. B) Kaplan Meier survival curve of vehicle- and MPLA-primed mice. (n=12 mice/group) after S. aureus inoculation. C) Core (rectal) body temperature assessed daily after S. aureus inoculation. D) S. aureus cfu per gram of tissue recoverable from whole spleen, lung, and kidney in vehicle and MPLA-primed mice at 3 days after S. aureus inoculation. E) Concentration of serum IL-6 2 hours after S. aureus inoculation or vehicle. F) Concentration of serum BUN 3 days after S. aureus inoculation or vehicle. G) Kaplan Meier survival curve of vehicle- and MPLA-primed mice. (n=12 mice/group) after intravenous 10^8 cfu C. albicans inoculation. H) Core (rectal) body temperature after C. albicans inoculation. Data shown as mean+/−SEM. For Kaplan-Meier plots *, p<0.05 via log-rank Mantel-Cox test. Otherwise, *, p<0.05 as determined by ANOVA with Tukey's post-hoc multiple comparison test.
# MPLA is also effective in improving survival in models of systemic S. aureus and C. albicans infection. Mice treated with MPLA (20 μg) after a 20% cutaneous burn received intravenous challenge with S. aureus or C. albicans (1×10^8 CFU) on day 5 post-burn (FIG. 2).
# [2] = Physiological response of non-burned sheep to MPLA infusion (FIG. 6); type: in vivo; details: 1 hour monitoring
# Method: FIG. 6. Effects of MPLA infusion at the indicated doses over 10 minutes. Endpoints were recorded over a 1 hour period beginning at the end of the MPLA infusion.
# In further studies, the response of sheep to MPLA infusion was assessed (FIG. 6). Instrumented sheep received infusions of MPLA at doses of 5, 10 or 30 ug/kg in 10 ml of endotoxin-free lactated Ringer's solution over 10 minutes. Physiological parameters were monitored for 1 hour after MPLA infusion. […] These observations indicate that sheep have sensitivity to MPLA that is very similar to humans.
# P. aeruginosa = details: 20 μg IP on 2 consecutive days, compared to vehicle
# [3] = tested on: Bone marrow derived macrophages (BMDMs); assay: Metabolic reprogramming of bone marrow derived macrophages by MPLA (FIG. 11); type: cell-based; details: 1 μg/mL MPLA for 24 hours
# Method: FIG. 11. MPLA drives persistent and dynamic metabolic reprogramming in macrophages. A) Bone marrow derived macrophages (BMDMs) were primed with 1 μg/mL MPLA for 24 hours, washed, and rested for 3 days (3 dp macrophages). These macrophages were compared to BMDMs stimulated with 1 μg/mL MPLA for 24 hours prior to assessment (24 hr macrophages) and untreated BMDMs (control). B) Glycolysis stress test of macrophages as determined by the Seahorse Xf^e96. C) Maximal extracellular acidification rate (ECAR) derived after the addition of oligomycin in the glycolysis stress test D) Glucose consumed from BMDMs over 24 hours, as determined by glucose concentration in cell-free medium subtracted by cell-containing medium. E) Lactate produced by BMDMs over 24 hours, as determined by lactate in cell-containing medium subtracted by cell free medium. F) Basal oxygen consumption rate (OCR) determined after the addition of glucose in the glycolysis stress test. G) Mitochondrial stress test of BMDMs as determined by the Seahorse Xfi96. H) Maximal oxidative rate derived after the addition of FCCP in the mitochondrial stress test. I) Intracellular ATP from BMDMs as determined by luminescence assay. Some BMDMs were exposed to 10 mM 2-DG or IlpM oligomycin for 3 hours prior to the assay. J) MitoTracker Green staining of BMDMs as determined by flow cytometry. K) Mitochondrial DNA (mtDNA)/nuclear DNA (nucDNA) as determined by qPCR. L) Succinate dehydrogenase (SDHA), citrate synthase (CS), and β-actin as determined by western blot. All bands shown derived from the same samples. […] Densitometry of SDHA and CS compared to β-actin derived from ImageJ shown. All experiments replicated at least twice. Data shown as mean+/−SEM. *, p<0.05 as determined by ANOVA with Tukey's post-hoc multiple comparison analysis.
substance,measurement,setting,value
Monophosphoryl Lipid A [MPLA],"macrophage, monocyte and neutrophil accumulation in the spleen",[1]; 3 days after S. aureus inoculation,increases
same,beneficial effects of MPLA after depletion of macrophages or neutrophils,"[1]; clodronate-liposomes or anti-Ly6G, survival after S. aureus, not with cells of the adaptive immune system",ablates the beneficial effects of MPLA
same,macrophage phagocytosis and respiratory burst functions,"[1]; intraperitoneal priming, peritoneal leukocytes",increases
same,macrophage accumulation in S. aureus abscesses,"[1]; kidney, F4/80+ staining, 3 days after inoculation",increases
same,infection-induced hypothermia,"S. aureus; FIG. 2 C-F, H",attenuated infection-induced hypothermia
same,kidney injury,"S. aureus; FIG. 2 C-F, H",less kidney injury
same,plasma cytokine concentrations,"S. aureus; FIG. 2 C-F, H",lower plasma cytokine concentrations
same,survival,S. aureus; intravenous S. aureus 1×10^8 CFU,90%
same,"temperature, heart rate or mean pulmonary artery pressure",[2]; MPLA 5 ug/kg infused over 10 minutes,did not change
same,"temperature, heart rate and mean pulmonary artery pressure",[2]; MPLA 10 or 30 ug/kg infused over 10 minutes,all parameters were increased
same,bacterial burden (peritoneal cavity),P. aeruginosa; 6 hours after challenge,decreased bacterial burden
same,neutrophil and monocyte recruitment to the site of infection,P. aeruginosa; 6 hours after challenge,markedly enhanced
same,infection-induced hypothermia,P. aeruginosa,attenuated infection-induced hypothermia
same,ATP production,[3],enhances ATP production
same,macrophage metabolism: glycolysis and oxygen consumption,[3],increased glycolysis and oxygen consumption
same,mitochondrial biogenesis,[3],enhances
